Test results reported in patent publication US12612395B2, “Rocaglate derivatives and uses thereof” (TRUSTEES OF BOSTON UNIVERSITY, priority 2023, dated 2026).

Test system: GBM0308 neurospheres
Assay: Neurosphere formation assay (single neurosphere, PI/Hoechst)
Format: cell-based
Settings: 72 hours
Protocol: To gain additional mechanistic insights into GBM cell death induced by (−)-20, the inventors conducted several functional assays. The inventors first derived a single neurosphere from GBM0308 cells cultured in stem cell conditions, which was treated with either DMSO or (−)-20 at varying doses for three days followed by staining with PI and Hoechst dyes and subsequent imaging. […] To capture the kinetics of apoptotic events, the inventors employed caspase 3/7 staining of GBM0308 neurospheres treated with either DMSO or (−)-20 and subsequently evaluated at three timepoints over a 48-hour period. […] (FIG. 5B).
Neurosphere Formation Assays: Single neurospheres were generated by seeding GBM0308 cells (400 cells per well) in a 384-well ultra-low attachment round bottom microplate (Nexcelom Bioscience, ULA-384 U). The plates were then centrifuged at 300×g for 10 minutes to cluster cells at the bottom of the wells, followed by incubation at 37° C. and 5% CO2 for 4 days to allow the formation of single neurospheres and treated with either DMSO or drugs at concentrations of 3.3, 1.11, 0.37, 0.12, 0.041, 0.013, 0.004 μM. On Day 7, neurospheres were stained with propidium iodide and Hoechst, as described above. The “neurosphere 1+Mask” application was used to measure the fluorescent intensities of PI, using Celigo cytometer as described previously.^70

With RK-33 [reference compound] the “concentration required to observe a noticeable effect on neurosphere size” value was > 3 µM.
